Measured values: patent EP4345091A1, “BENZOIC ACID DERIVATIVES, METHODS AND USES THEREOF” (priority 2022, dated 2024)
Converted amounts (≈) assume the structure as drawn. Read-outs that look alike come from different tables or passages of the source.

Tests used:
[1] = system: Mycobacterium tuberculosis H37Rv; assay: MIC and MBC by broth microdilution against M. tuberculosis H37Rv; assay type: cell-based, Mycobacterium tuberculosis H37Rv (ATCC 27294); conditions: Mycobacterium tuberculosis, H37RV
[2] = Cytotoxicity assay in THP-1 cells; assay type: cell-based, human; conditions: human, THP-1 cells, read-out: LC50 (the source's name)
Excerpt: (§1) Cytotoxicity results were obtained through lethal concentration for 50% of the cell population, LC50. Table 6. Results obtained from cytotoxicity assays for the esters, represented by LD50 in µg/mL and comparison with MIC values, in µg/mL with toxicity/activity (T/A) index.
(§2) The T/A index quantitatively is the ratio between the lethal concentration (LC50) given by the minimum inhibitory concentration (MIC).

[3] = Chemical stability in phosphate buffer pH 7.4
Method: Chemical hydrolysis was evaluated in phosphate buffer at physiological pH (7.4) to determine its influence in enzymatic studies.
1176 µL pH 7.4 phosphate buffer or pH 5.9 phosphate buffer, 18 µL ACN and 6 µL of a 10-1 M stock solution of the prodrug in ACN were mixed in a 2mL vial. The solution was incubated at 37 °C and 50 µL aliquots were removed, mixed with 450 µL of ACN: H2O 1:1. The solution was analysed by HPLC, the remaining substrate and the correspondent acid were both measured.
The eluant was a mixture of acetonitrile (60%/70%) and aqueous phosphate buffer with 5% of KH2PO4/H3PO4 0.025M (40%/30%). The flow rate was always 1 mL/1 min and wavelength was set at 230 nm. All quantifications were evaluated using calibration curves from stock solutions.
The initial substrate concentration was 5 x 10^-4 M in all stability assays. All incubations were carried out at pH 7.4 and 37 °C under agitation using the phosphate buffer described above as diluting agent. […] Acetonitrile (2%) was used in all studies to ensure adequate solubilization of the substrates.

[4] = Stability in human plasma (enzymatic hydrolysis)
Method: The studies of stability in human plasma were performed in human plasma diluted to 80% with phosphate buffer pH 7.4 of total concentration 0.05 M and ionic strength 0.15 M at 37°C. […] Study of enzymatic hydrolysis. […] Initial substrate concentration (ester) - 5×10^-4M with 2% ACN.
Pooled human plasma (960 µL), pH 7.4 phosphate buffered saline (216 µL), 18 µL ACN and 6 µL of a 10-1 M stock solution of the prodrug in ACN were mixed in a 2mL vial. The suspensions were incubated at 37 °C and 50 µL aliquots were removed, mixed with 450 µL of ACN: ZnSO4 1% 1:1 and centrifuged. The supernatant was removed and analysed by HPLC, the remaining substrate and the correspondent acid measured.
Two HPLC systems were used. The buffer and plasma stability studies were performed in an HPLC system with a photodiode detector L-3000 Photo Diode Array Detector, Merck-Hitachi L-6000 pump, Merck-Hitachi D-2500 integrator, and Merck RP-8 column. […] The eluant was a mixture of acetonitrile (60%/70%) and aqueous phosphate buffer with 5% of KH2PO4/H3PO4 0.025M (40%/30%). The flow rate was always 1 mL/1 min and wavelength was set at 230 nm. All quantifications were evaluated using calibration curves from stock solutions.
The initial substrate concentration was 5 x 10^-4 M in all stability assays. All incubations were carried out at pH 7.4 and 37 °C under agitation using the phosphate buffer described above as diluting agent. […] Acetonitrile (2%) was used in all studies to ensure adequate solubilization of the substrates. The benzoates were added from 10 to 1M acetonitrile stock solutions. After incubation, aliquots of 50 µL were taken into vials containing 450 µL of a 1:1 solution of 1% zinc sulfate and acetonitrile, mixed in a vortex and centrifuged for 10 min at 15,000 rpm. The supernatant was then injected into the HPLC and analysed for quantification of benzoic acid and remaining benzoate. All quantifications were performed using calibration curves.

[5] = system: Mycobacterium smegmatis homogenate; assay: Stability in Mycobacterium smegmatis homogenate (enzymatic hydrolysis); conditions: Mycobacterium smegmatis homogenate, 37°C
[6] = system: Mycobacterium Bovis BCG infecting human macrophages THP-1; assay type: cell-based
[7] = system: human monocytic cell line THP-1 (ATCC56 TIB202); assay: Cytotoxicity assay in THP-1 cells; assay type: cell-based; conditions: toxicity/activity index: ratio LC50 (THP-1) / MIC (M. tuberculosis H37Rv)
Excerpt: as §1, §2

[8] = M. tuberculosis H37Rv, Table 3, read-out: MBC
[9] = M. tuberculosis H37Rv, Tables 3, 6 and 7, read-out: MIC
[10] = THP-1 monocytic cells, n/d (no toxicity at maximum tested dose)
[11] = Time 0 days, compound concentration 2 µg/ml
[12] = Time 1 day, compound concentration 2 µg/ml
[13] = Time 3 days, compound concentration 2 µg/ml
[14] = Time 7 days, compound concentration 2 µg/ml
[15] = n/d (no toxicity at maximum tested dose)
[16] = THP-1 monocytic cells, lethal concentration for 50% of the cell population

SMILES	MBC [1, 8] [µg/mL]	MIC [1, 9] [µg/mL]	Degradation (%) 24h [3] [%]	Degradation (%) 48h [3] [%]	Degradation (%) 72h [3] [%]	Degradation (%) 168h [3] [%]	Degradation (%) 332h [3] [%]	Degradation (%) 24h [4] [%]	Degradation (%) 48h [4] [%]	Degradation (%) 72h [4] [%]	Degradation (%) 24h [5] [%]	Degradation (%) 48h [5] [%]	CC50 [2, 16] [µg/mL]	T/A [7]	other results
CCCCCCCCCCCCOC(=O)c1cc([N+](=O)[O-])cc(C(F)(F)F)c1 [Compound 4e, Dodecyl 3-nitro-5-(trifluoromethyl)benzoate]	> 1020	> 1020	1	2	3	6	11	1	2	3	3	6	–	–	CC50 [2, 10]: > 512 µg/mL
CCCCCCCCCCCCCCOC(=O)c1cc([N+](=O)[O-])cc([N+](=O)[O-])c1 [Compound 3f]	–	–	–	–	–	–	–	23	51	65	3	6	–	–	MBC [1]: > 1020 µg/mL; MIC [1]: 16 µg/mL (≈ 39.2 µM); CFU x10^4 [6, 11]: 9.2 CFUs per mL; CFU x10^4 [6, 12]: 12.16 CFUs per mL; CFU x10^4 [6, 13]: 13.66 CFUs per mL; CFU x10^4 [6, 14]: 7.25 CFUs per mL; CC50 [2, 15]: > 512 µg/mL
CCCCCCNC(=O)c1cc([N+](=O)[O-])cc(C(F)(F)F)c1 [Compound 8b, N-hexyl-3-nitro-5-(trifluoromethyl)-benzamide]	≤ 0.5	≤ 0.5	–	–	–	–	–	–	–	–	7	14	23 (≈ 72.3 µM)	46	–
NNC(=O)c1ccncc1 [INH, isoniazid, reference compound]	0.05 (≈ 0.365 µM)	0.025 (≈ 0.182 µM)	–	–	–	–	–	–	–	–	–	–	–	–	CFU x10^4 ([6]; Time 0 days, concentration 0.1 µg/ml): 9.2 CFUs per mL; CFU x10^4 ([6]; Time 1 day, concentration 0.1 µg/ml): 9.91 CFUs per mL; CFU x10^4 ([6]; Time 3 days, concentration 0.1 µg/ml): 1.33 CFUs per mL; CFU x10^4 ([6]; Time 7 days, concentration 0.1 µg/ml): 0.24 CFUs per mL
CCCCCCCCOC(=O)c1cc([N+](=O)[O-])cc([N+](=O)[O-])c1 [Compound 3c]	–	–	0	0	1	2	3	57	81	92	10	19	–	–	MBC [1]: 8 µg/mL (≈ 24.7 µM); MIC [1]: 8 µg/mL (≈ 24.7 µM)
CCCCCCCCCCNC(=O)c1cc([N+](=O)[O-])cc(C(F)(F)F)c1 [Compound 8d, N-decyl-3-nitro-5-(trifluoromethyl)-benzamide]	0.5 (≈ 1.34 µM)	0.5 (≈ 1.34 µM)	–	–	–	–	–	–	–	–	2	3	53 (≈ 142 µM)	106	–
CCCCCCCCCCOC(=O)c1cc([N+](=O)[O-])cc([N+](=O)[O-])c1 [Compound 3d, Decyl 3,5-dinitrobenzoate]	–	–	–	–	–	–	–	18	32	44	5	9	–	–	MBC [1]: 4 µg/mL (≈ 11.4 µM); MIC [1]: 4 µg/mL (≈ 11.4 µM); CFU x10^4 [6, 11]: 9.2 CFUs per mL; CFU x10^4 [6, 12]: 12.5 CFUs per mL; CFU x10^4 [6, 13]: 12.5 CFUs per mL; CFU x10^4 [6, 14]: 8.5 CFUs per mL; CC50 [2, 10]: > 512 µg/mL
CCCCCCCCNC(=O)c1ccc([N+](=O)[O-])cc1 [Compound 6c, N-octyl-4-nitrobenzamide]	256 (≈ 920 µM)	128 (≈ 460 µM)	0	0	0	0	0	0	0	1	3	5	308 (≈ 1110 µM)	2	–
CCCCNC(=O)c1ccccc1 [Compound 5a, N-butyl-benzamide]	256 (≈ 1440 µM)	256 (≈ 1440 µM)	0	0	0	0	0	0	0	0	2	3	–	–	–
CCCCCCCCCCOC(=O)c1cc([N+](=O)[O-])cc(C(F)(F)F)c1 [Compound 4d, Decyl 3-nitro-5-(trifluoromethyl)benzoate]	256 (≈ 682 µM)	128 (≈ 341 µM)	–	–	–	–	–	26	45	60	5	10	–	–	CC50 [2, 10]: > 512 µg/mL
CCCCCCCCCCCCNC(=O)c1cc([N+](=O)[O-])cc(C(F)(F)F)c1 [Compound 8e, N-dodecyl-3-nitro-5-(trifluoromethyl)-benzamide]	0.5 (≈ 1.24 µM)	0.5 (≈ 1.24 µM)	0	0	0	0	0	0	0	0	1	3	113 (≈ 281 µM)	226	–
CCCCCCCCCCCCOC(=O)c1cc([N+](=O)[O-])cc([N+](=O)[O-])c1 [Compound 3e]	–	–	0	0	1	1	2	29	50	65	4	8	–	–	MBC [1]: 16 µg/mL (≈ 42.1 µM); MIC [1]: 8 µg/mL (≈ 21 µM); CC50 [2, 15]: > 512 µg/mL
CCCCCCCCNC(=O)c1ccccc1 [Compound 5c, N-octyl-benzamide]	32 (≈ 137 µM)	32 (≈ 137 µM)	0	0	0	0	0	0	0	0	1	2	188 (≈ 806 µM)	6	–
CCCCCCCCCCCCNC(=O)c1ccc([N+](=O)[O-])cc1 [Compound 6e, N-dodecyl-4-nitrobenzamide]	256 (≈ 765 µM)	256 (≈ 765 µM)	0	0	0	0	0	0	0	1	2	3	–	–	–
CCCCCCCCCCCCCCCCOC(=O)c1cc([N+](=O)[O-])cc([N+](=O)[O-])c1 [Compound 3g, Hexadecyl 3,5-dinitrobenzoate]	–	–	–	–	–	–	–	1	3	4	2	4	–	–	MBC [1]: > 1020 µg/mL; MIC [1]: > 1020 µg/mL; CC50 [2, 10]: > 512 µg/mL
CCCCCCCCCCCCNC(=O)c1ccccc1 [Compound 5e, N-dodecyl-benzamide]	> 256	> 256	0	0	0	0	0	0	0	0	0	0	–	–	–
CCCCCCNC(=O)c1ccccc1 [Compound 5b, N-hexyl-benzamide]	64 (≈ 312 µM)	64 (≈ 312 µM)	–	–	–	–	–	–	–	–	1	2	–	–	–
CCCCCCCCNC(=O)c1cc([N+](=O)[O-])cc(C(F)(F)F)c1 [Compound 8c, N-octyl-3-nitro-5-(trifluoromethyl)-benzamide]	0.063 (≈ 0.182 µM)	0.063 (≈ 0.182 µM)	0	0	0	0	0	0	0	0	5	11	14 (≈ 40.4 µM)	222	–
CCCCCCCCOC(=O)c1cc([N+](=O)[O-])cc(C(F)(F)F)c1 [Compound 4c, Octyl 3-nitro-5-(trifluoromethyl)benzoate]	–	–	0	1	1	3	6	42	67	81	8	16	–	–	–
